According to patent US6384051B1, “Method of treating or inhibiting colonic polyps” (American Cyanamid Company, priority 2000, dated 2002):
Structures can show the parent of a compound that is named as a salt.

First: CN(C)CC#CC(=O)Nc1ccc2ncc(C#N)c(Nc3cccc(Br)c3)c2c1 [Example 59, N-[4-[(3-Bromophenyl)amino]-3-cyano-6-quinolinyl]-4-dimethylamino-2-butynamide]
Second: CC(C)N(C)CC#CC(=O)Nc1ccc2ncc(C#N)c(Nc3cccc(Br)c3)c2c1 [Example 191, N-[4-[(3-Bromophenyl)amino]-3-cyano-6-quinolinyl]-4-(N-isopropyl-N-methylamino)-2-butynamide]
The melting point of the first is lower: 114 to 118 °C for the first, 124 to 126 °C for the second.

Compared with COc1cc2ncc(C#N)c(Nc3cccc(C(=O)O)c3C)c2cc1OC [Example 368, 3-(3-Cyano-6,7-dimethoxy-quinolin-4-ylamino) -2-methyl-benzoic acid], COc1cc2ncc(C#N)c(Nc3cccc(CO)c3C)c2cc1OC [Example 333, 4-(3-Hydroxymethyl-2-methylphenylamino)-6,7-dimethoxyquinoline-3-carbonitrile] is lower in melting point: 242 to 245 °C for the first, 123 to 125 °C for the second.

First: COc1cc2ncc(C#N)c(Nc3ccccc3CCO)c2cc1OC [Example 301, 4-[2-(2-Hydroxy-ethyl)-phenylamino]-6,7-dimethoxy-quinoline-3-carbonitrile]
Second: COc1cc2ncc(C#N)c(Nc3ccc(CCO)cc3)c2cc1OC [Example 299, 4-[4-(2-Hydroxy-ethyl)-phenylamino]-6,7-dimethoxy-quinoline-3-carbonitrile]
The melting point of the first is lower: 159 to 162 °C for the first, 208 to 210 °C for the second.

First: COc1cc2c(Nc3ccc(Cl)cc3F)c(C#N)cnc2c(OC)c1OC [Example 234, 4-(4-Chloro-2-fluoro-phenylamino)-6,7,8-trimethoxy-quinoline-3-carbonitrile]
Second: COc1cc2ncc(C#N)c(Nc3ccc(Cl)cc3F)c2cc1OC [Example 228, 4-(4-Chloro-2-fluoro-phenylamino)-6,7-dimethoxy-quinoline-3-carbonitrile]
The melting point of the first is higher: 166 to 168 °C for the first, 139 to 141 °C for the second.

First: COc1cc2c(Nc3ccc(Cl)cc3F)c(C#N)cnc2cc1OCc1ccccc1 (as salt: hydrochloride) [Example 322, 7-Benzyloxy-4-(4-chloro-2-fluoro-phenylamino)-6-methoxy-quinoline-3-carbonitrile]
Second: COc1cc2ncc(C#N)c(Nc3ccc(Cl)cc3C)c2cc1OC [Example 336, 4-(4-Chloro-2-methylphenylamino)-6,7-dimethoxyquinoline-3-carbonitrile]
The melting point of the first is higher: 241 to 243 °C for the first, 227 to 229 °C for the second.

First: COc1cc2ncc(C#N)c(Nc3cc(C)ccc3O)c2cc1OC [Example 295, 4-(2-Hydroxy-5-methyl-phenylamino)-6,7-dimethoxy-quinoline-3-carbonitrile]
Second: COc1cc2ncc(C#N)c(Nc3cccc(CO)c3)c2cc1OC [Example 48, 4-[(3-(hydroxymethyl)phenyl)amino]-6,7-dimethoxy-3-quinolinecarbonitrile]
The melting point of the first is lower: 198 to 200 °C for the first, 250 to 255 °C for the second.

Compared with COc1cc2ncc(C#N)c(Nc3ccc(F)cc3)c2cc1OC [Example 46, 4-[(4-Fluorophenyl)amino]-6,7-dimethoxy-3-quinolinecarbonitrile], COc1cc2ncc(C#N)c(Nc3cccc(C(N)=O)c3)c2cc1OC [Example 247, 3-(3-Cyano-6,7-dimethoxy-quinolin-4-ylamino)-benzamide] is lower in melting point: 282 to 285 °C for the first, 253 to 255 °C for the second.

Compared with N#Cc1cnc2ccc(NC(=O)C#CCN3CCOCC3)cc2c1Nc1cccc(Br)c1 [Example 58, N-[4-[(3-Bromophenyl)amino]-3-cyano-6-quinolinyl]-4-morpholino-2-butynamide], COc1cc2c(Nc3cccc(Br)c3)c(C#N)cnc2cc1OCCCN1CCOCC1 [Example 313, 4-(3-Bromo-phenylamino)-6-methoxy-7-(3-morpholin-4-yl-propoxy)-quinoline-3-carbonitrile] is higher in melting point: 112 to 115 °C for the first, 115 to 118 °C for the second.

First: COc1cc2c(Nc3ccccc3SC)c(C#N)cnc2cc1OCCCN1CCOCC1 [Example 314, 6-Methoxy-4-(2-methylsulfanyl-phenylamino)-7-(3-morpholin-4-yl-propoxy)-quinoline-3-carbonitrile]
Second: COc1cc2ncc(C#N)c(Oc3cccc(Br)c3)c2cc1OC [Example 49, 4-(3-Bromophenoxy)-6,7-dimethoxy-3-quinolinecarbonitrile]
The melting point of the first is lower: 179 to 180 °C for the first, 187 to 190 °C for the second.

First: COc1cc2c(Nc3cccc(N(C)C)c3)c(C#N)cnc2c(OC)c1OC [Example 232, 4-(3-Dimethylamino-phenylamino)-6,7,8-trimethoxy-quinoline-3-carbonitrile]
Second: COc1ccc(OC)c2c(Nc3cccc(N(C)C)c3)c(C#N)cnc12 [Example 242, 4-(3-Dimethylamino-phenylamino)-5,8-dimethoxy-quinoline-3-carbonitrile]
The melting point of the first is higher: 142 to 144 °C for the first, 103 to 105 °C for the second.

First: CCN(CC)CC#CC(=O)Nc1ccc2ncc(C#N)c(Nc3ccc(F)c(Cl)c3)c2c1 [Example 189, N-[4-[(3-Chloro-4-fluorophenyl)amino]-3-cyano-6-quinolinyl]-4-diethylamino-2-butynamide]
Second: N#Cc1cnc2cc(O)c(O)cc2c1Nc1ccc(Cl)cc1F [Example 373, 4-(4-Chloro-2-fluoro-phenylamino)-6,7-dihydroxy-quinoline-3-carbonitrile]
The melting point of the first is lower: 117 to 120 °C for the first, 270 to 272 °C for the second.

In the case of CN(C)CC#CC(=O)Nc1ccc2ncc(C#N)c(Nc3ccc(F)c(Cl)c3)c2c1 [Example 193, N-[4-[(3-Chloro-4-fluorophenyl)amino]-3-cyano-6-quinolinyl]-4-dimethylamino-2-butynamide], the melting point was 225 °C (dec.).
In the case of COCC#CC(=O)Nc1ccc2ncc(C#N)c(Nc3cccc(Br)c3)c2c1 [Example 60, N-[4-[(3-Bromophenyl)amino]-3-cyano-6-quinolinyl]-4-methoxy-2-butynamide], the melting point was 198 to 202 °C (dec.).
COc1cc2ncc(C#N)c(Nc3ccc(O)cc3C)c2cc1OC [Example 292, 4-(4-Hydroxy-2-methyl-phenylamino)-6,7-dimethoxy-quinoline-3-carbonitrile] showed a melting point greater than 250 °C.
With COc1cccc2c(Nc3ccc(Br)c(O)c3)c(C#N)cnc12 [Example 278, 4-(4-Bromo-3-hydroxy-phenylamino)-8-methoxy-quinoline-3-carbonitrile] the melting point was 146 °C (dec.).
For COc1ccc(Nc2c(C#N)cnc3c(OC)cccc23)cc1O [Example 279, 4-(3-Hydroxy-4-methoxy-phenylamino)-8-methoxy-quinoline-3-carbonitrile], the melting point was 138 to 140 °C (dec.).
With COc1ccc(OC)c2c(Nc3cc(O)c(Cl)cc3F)c(C#N)cnc12 [Example 243, 4-(4-Chloro-2-fluoro-5-hydroxy-phenylamino)-5,8-dimethoxy-quinoline-3-carbonitrile] the melting point was 240 °C (dec.).
With COc1ccc2ncc(C#N)c(Nc3ccc(C)c(O)c3)c2c1 [Example 284, 4-(3-Hydroxy-4-methyl-phenylamino)-6-methoxy-quinoline-3-carbonitrile] the melting point was > 250 °C (dec.).
COc1cc2ncc(C#N)c(Nc3ccc(C(N)=O)cc3)c2cc1OC [Example 289, 4-(3-Cyano-6,7-dimethoxy-quinolin-4-ylamino)-benzamide] gave a melting point greater than 250 °C.
In the case of CN(C)CC#CC(=O)Nc1ccc2ncc(C#N)c(Nc3cccc(Br)c3)c2c1 [Example 329, N-[4-[(3-Bromophenyl)amino]-3-cyano-6-quinolinyl]-4-dimethylamino-2-butynamide], the melting point was 180 °C (dec.).
